# Measured values from article PMC10700673, “A Smart Intracellular Self‐Assembling Bioorthogonal Raman Active Nanoprobe for Targeted Tumor Imaging” (Advanced Science, 2023).
# Tests used:
# Format in all cases: cell-based
# RWPE1 cells = test: confocal Raman imaging of cells; settings: 100 µM, 3 h, then fresh media 30 min; fixed cells; RWPE1, normal prostate epithelium
# Method: (§1) Raman measurements were performed on cells cultured on quartz slides. Cells were incubated with 100 µM nanoSABER probe solution for 3 h, then fresh media was added and incubation was continued for an extra 30 min. Subsequently, the cells were washed three times with phosphate‐buffered saline (PBS), fixed with 4% paraformaldehyde (PFA) for 20 min, and washed with PBS again. Finally, cells were imaged using a confocal Raman microscope. Cell boundaries were constructed using the Raman peak at 1440 cm^−1 characteristic of intrinsic cellular signals.^[ [29] ^] […] These spectral features indicate legumain‐mediated intracellular self‐assembly of nanoSABER into alkyne‐dimer nanoparticles in DU145 cells. The Raman mapping results were consistent with our in vitro solution‐based measurements (Figure 2f) where the nitrile peak diminished after the formation of alkyne‐dimer.
# (§2) Raman spectra of all synthesized peptides were acquired using a 785 nm laser and a 50× objective. The acquisition time was 10 s with 5 repetitions. All spectra were processed using custom‐written scripts in MATLAB for a tenth‐order least‐squares polynomial baseline correction with a moving window of 50. All Raman cellular imaging maps were acquired using 785 nm laser excitation and a 60× water immersion objective. For each acquisition time, the number of accumulations were 6 s and 8 acquisitions, respectively. For sample preparation, 1 × 10^5 cells were cultured in six‐well plates containing 10×10 mm quartz slides for 24 h. Cells were incubated with 100 µM of nanoSABER or Scr nanoprobe for 3 h followed by replacement with fresh media and additional incubation for 30 min. Cells were washed with PBS three times and then fixed with 4 % paraformaldehyde (PFA) for 20 min, resuspended back in PBS, and then imaged using a confocal Raman microscope. […] For each group, three independent experiments were performed, and from each pellet, we recorded Raman spectra from eight different positions. […]
# DU145 cells = test: confocal Raman imaging of cells; settings: 100 µM, 3 h, then fresh media 30 min; fixed cells; DU145, legumain overexpressing
# Method: as §1, §2
# LNCaP cells = test: confocal Raman imaging of cells; settings: 100 µM, 3 h, then fresh media 30 min, fixed cells, legumain low-expressing
# Method: as §1, §2
# [1] = system: DU145, LNCaP, and RWPE1 cells; test: cell viability, Trypan blue cell counting; settings: 48 h of incubation, % of untreated control, three independent experiments
# Excerpt: To confirm that the nanoSABER nanoprobe can effectively differentiate between cells with high and low levels of legumain expression, we examined nanoSABER assembly in DU145, LNCaP, and RWPE1 cells. DU145 and LNCaP are legumain overexpressing and low‐expressing prostate cancer cell lines, respectively, whereas RWPE1 is a normal prostate epithelium cell line. Legumain‐overexpressing tumorigenic cells are aggressive in terms of migration and invasion.^[ [33] ^] Therefore, designing new probes for targeted imaging of legumain expression is of great significance for tumor diagnosis and tumor staging. […] A combination of both high endogenous GSH and high legumain levels is necessary in order for DU145 cells to uncage the thiol and amino groups in the nanoSABER, triggering intramolecular cyclization to form alkyne‐dimers.
# For cell viability testing, the total numbers of DU145, LNCaP, and RWPE1 cells were counted after staining with Trypan blue using an Invitrogen Countess 3 automated cell counter. Cells were incubated with nanoSABER at different concentrations. Cell viability was calculated as a percentage of control (untreated cells) set at 100%. Data were expressed as mean ± standard deviation. from three independent experiments.
substance,measurement,setting,value
Ac‐Arg‐Arg‐Arg‐Arg‐Arg‐Arg‐Ala‐Ala‐Asn‐Cys(StBu)‐Pra‐Lys‐CBT [nanoSABER],"Raman map, alkyne and nitrile signals",RWPE1 cells,signals for both alkyne and nitrile groups from the nanoprobe were observed
same,"Raman map, alkyne 2120 cm-1 and nitrile 2230 cm-1 signals",DU145 cells,undetectable signal levels at 2230 cm^−1
same,"Raman map, alkyne and nitrile signals",LNCaP cells,signals for both alkyne and nitrile groups from the nanoprobe were observed
same,toxic concentration (no toxicity up to),[1],> 250 µM
